# Source: patent publication US20110196006A1, “IMAZALIL COMPOSITIONS COMPRISING ALKOXYLATED AMINES” (priority 2004, published 2011)
# Assays:
# [1] = tested on: Microdochium nivale; experiment: Experiment 1: poison plate assay (growth inhibition, MIC); format: cell-based; settings: potato dextrose agar, 21° C., dark, 75% relative humidity, imazalil 6.66-1.58 ppm, alkoxylated amine 26.66-6.33 ppm, combinations imazalil:amine 1 to 4
# Protocol: Activity against growth of Microdochium nivale was determined with the poison plate assay. A calculated amount of a stock solution (containing either imazalil or an alkoxylated amine of formula (I) dissolved in dimethyl sulfoxide was pipetted into multiwell plates. Culture medium (potato dextrose agar) was added aseptically and uniform distribution was obtained by shaking. The plates were inoculated with the test fungus Microdochium nivale (suspension of 6.10^5 spores/ml). The multi-well plates were kept in the dark at 21° C. and a relative humidity of 75%. The stock solution comprising imazalil at a concentration of 2000 ppm was pipetted in the multiwell plates in order to reach a final test concentration in six decreasing steps ranging from 6.66, 5.00, 3.75, 2.81, 2.11 and 1.58 ppm. The stock solution comprising an alkoxylated amine of formula (I) at a concentration of 8000 ppm was pipetted in the multiwell plates in order to reach a final test concentration in six decreasing steps ranging from 26.66, 20.00, 15.00, 11.25, 8.44, and 6.33 ppm wherein the ratio of imazalil to alkoxylated amine of formula (I) is 1 to 4 in each of the wells containing both imazalil and alkoxylated amine (I). The lowest concentration of each test compound or mixture of test compounds sufficient to inhibit visible growth was taken as the minimum inhibitory concentration (MIC). The MIC were taken as end points of activity. End points for the combinations of imazalil with an alkoxylated amine of formula (I) were then compared with the end points for these test compound when employed individually.
# [2] = tested on: Microdochium nivale; experiment: Experiment 2: poison plate assay (growth inhibition, MIC); format: cell-based; settings: as Experiment 1, imazalil 10-2.37 ppm, alkoxylated amine 40-9.49 ppm
# Protocol: Activity against growth of Microdochium nivale was determined with the poison plate assay. A calculated amount of a stock solution (containing either imazalil or an alkoxylated amine of formula (I) dissolved in dimethyl sulfoxide was pipetted into multiwell plates. Culture medium (potato dextrose agar) was added aseptically and uniform distribution was obtained by shaking. The plates were inoculated with the test fungus Microdochium nivale (suspension of 6.10^5 spores/ml). The multi-well plates were kept in the dark at 21° C. and a relative humidity of 75%. The lowest concentration of each test compound or mixture of test compounds sufficient to inhibit visible growth was taken as the minimum inhibitory concentration (MIC). The MIC were taken as end points of activity. End points for the combinations of imazalil with an alkoxylated amine of formula (I) were then compared with the end points for these test compound when employed individually. A similar poison plate assay was run as described in Experiment 1, but the final concentrations of imazalil now ranged from 10, 7.50, 5.63, 4.22, 3.16 to 2.37 ppm. The final concentrations of alkoxylated amine of formula (I) now ranged from 40, 30, 22.50, 16.88, 12.66 to 9.49 ppm.
# [3] = Microdochium nivale, read-out: MIC-values (lowest concentration sufficient to inhibit visible growth)
compound,measurement,setting,value
C=CCOC(Cn1ccnc1)c1ccc(Cl)cc1Cl (centres unmarked) [imazalil],MIC,[1]; [3],2.81 mg/L
same,MIC,[2]; [3],3.16 mg/L
"N,N′,N′-tris(2-hydroxyethyl)-N-cocoalkyl-1,3-diaminopropane [ethoduomeen C13]",MIC-values (lowest concentration sufficient to inhibit visible growth),[2],>40 ppm
"N,N′,N′-tris-(2-hydroxyethyl)-N-tallowalkyl-1,3-diaminopropane [ethoduomeen T13]",MIC-values (lowest concentration sufficient to inhibit visible growth),[1],>26.7 ppm
bis-(2-hydroxyethyl)cocoalkylamine [ethomeen C12],MIC-values (lowest concentration sufficient to inhibit visible growth),[1],>26.7 ppm
